Source: article PMC10920834, “Synthesis, anticancer activity, and molecular docking of half-sandwich iron(II) cyclopentadienyl complexes with maleimide and phosphine or phosphite ligands” (Scientific Reports, 2024)

Tests used:
Type in all cases: cell-based, human
HL-60 cells [1] = experiment: Alkaline comet assay, HL-60 cells; settings: 2 h incubation, 1-50 μM tested
Method: Selected iron(II) complexes were added to the suspension of the cells to give final concentrations of 1, 5, 10, 25 and 50 μM. HL-60 and A549 cells were incubated with the complexes for 2 h at 37 °C. The comet assay was performed under alkaline conditions according to the procedure of Tokarz et al.[45]. […] Next, the cells were lysed for 1 h at 4 °C in a buffer containing 2.5 M NaCl, 0.1 M EDTA, 10 mM Tris, 1% Triton X-100, pH 10. Following the lysis, the slides were placed in an electrophoresis unit. DNA was allowed to unwind for 20 min in the solution containing 300 mM NaOH and 1 mM EDTA, pH > 13. […] After separation, the slides were washed in water, drained, stained with 2 μg/ml DAPI and covered with cover slips. As a prevention from additional DNA damage, the procedure described above was conducted under limited light or in the dark. Each experiment included the positive control—cells incubated with H2O2 at 20 µM for 15 min on ice (data not shown).
The comets obtained after single cell gel electrophoresis were analysed in the following manner. […] Hundred images of singular comets were randomly selected from each sample and the mean value of DNA in comet tail was taken as an index of DNA damage (expressed in percent).

HL-60 cells [2] = experiment: Cell viability resazurin assay, HL-60 cells; settings: for viability of HL-60 cells relative to control: ± SD
Method: (§1) The A549 (human non-small cell lung cancer) cell line was obtained from the American Type Culture Collection (ATCC) and cultured in Dulbecco's Modified Eagle Medium (DMEM) with 10% fetal bovine serum (FBS), 2 mM L-Glutamine, 25 mM HEPES and penicillin/streptomycin solution (100 U/ml and 100 µg/ml, respectively). The HL-60 (human promyelocytic leukemia) cell line was also obtained from the American Type Culture Collection (ATCC) and cultured in Iscove’s Modified Dulbecco's Medium (IMDM) with 15% fetal bovine serum (FBS), 2 mM L-Glutamine, 25 mM HEPES and penicillin/streptomycin solution (100 U/ml and 100 µg/ml, respectively). Both cell lines were cultured in flasks at 37 °C in 5% CO2 and sub-cultured every 2–3 days to maintain exponential growth.
(§2) Firstly, resazurin salt powder was dissolved in sterile 1 × PBS. Cells were then seeded on the 96-well plates in the count of 1 × 10^4 in the case of HL-60 cells and of 5 × 10^4 for PBM cells and of 5 × 10^3 for A549 cells per well. A549 cells were seeded 24 h prior to treatment with the complexes to allow cell adherence to 96-well plate. Iron(II) complexes were added to wells to obtain final concentrations of 0.5, 1, 2.5, 5, 10, 25, 50, 100 and 250 μM. Subsequently, plates were incubated at 37 °C in 5% CO2 for 2 h and 24 h. After that 10 μl of resazurin salt was added to each well and plates again were incubated in 37 °C in 5% CO2 for 2 h. Finally, fluorescence was measured with microplate reader Synergy HT (Bio-Tek Instruments, USA) using an excitation wavelength of 530/25 and an emission wavelength of 590/35 nm. The effects of iron(II) complexes were calculated as the percentage of control fluorescence. IC50 (half maximal inhibitory concentration) values were calculated using a website algorithm (https://www.aatbio.com/tools/ic50-calculator). All assays were performed in octuplicate.

A549 cells = experiment: Cell viability resazurin assay, A549 cells; settings: for viability of A549 cells relative to control: ± SD
Method: as §1, §2

PBM cells = experiment: Cell viability resazurin assay, PBM cells; settings: for viability of PBM cells relative to control: ± SD
Description: Peripheral blood mononuclear (PBM) cells were isolated from a leukocyte-buffy coat collected from the blood of healthy, non-smoking donors at the Blood Bank in Lodz, Poland. The study protocol received approval from the Committee for Research on Human Subjects of the University of Lodz (17/KBBN-UŁ/III/2019). The initial step of isolation process involved mixing buffy coats with PBS in a 1:1 ratio. Subsequently, the mixture was centrifuged using a density gradient of Lymphosep (Cytogen, Zgierz, Poland) at 2200 RPM for 20 min, employing the lowest values for acceleration and deceleration. PBM cells were collected and washed three times by centrifugation with 1 × PBS. Following isolation, the cells were suspended in RPMI 1640 medium.
as §2

CCOP(OCC)OCC.O=C1C=CC(=O)[N-]1.[C-]#[O+].[Fe+2].c1cc[cH-]c1 [3a]
DNA damage in HL-60 cells (alkaline comet assay), in words (HL-60 cells [1]): DNA damage at the concentrations of 10, 25 and 50 μM | viability of HL-60 cells relative to control (HL-60 cells [2]; 2 h incubation, 0.5 µM): 103.48 ± 2.11% | viability of HL-60 cells relative to control (HL-60 cells [2]; 2 h incubation, 1 µM): 105.44 ± 1% | viability of HL-60 cells relative to control (HL-60 cells [2]; 2 h incubation, 2.5 µM): 102.35 ± 0.54% | viability of HL-60 cells relative to control (HL-60 cells [2]; 2 h incubation, 5 µM): 100.13 ± 1.86% | viability of HL-60 cells relative to control (HL-60 cells [2]; 2 h incubation, 10 µM): 101.73 ± 3.47% | viability of HL-60 cells relative to control (HL-60 cells [2]; 2 h incubation, 25 µM): 97.68 ± 2.4% | viability of HL-60 cells relative to control (HL-60 cells [2]; 2 h incubation, 50 µM): 93.65 ± 1.73% | viability of HL-60 cells relative to control (HL-60 cells [2]; 2 h incubation, 100 µM): 87.54 ± 2.53% | viability of HL-60 cells relative to control (HL-60 cells [2]; 2 h incubation, 250 µM): 30.8 ± 1.55% | IC50 (HL-60 cells [2]; 24 h incubation): 15.9 µM | viability of HL-60 cells relative to control (HL-60 cells [2]; 24 h incubation, 0.5 µM): 107.33 ± 1.24% | viability of HL-60 cells relative to control (HL-60 cells [2]; 24 h incubation, 1 µM): 109.38 ± 4% | viability of HL-60 cells relative to control (HL-60 cells [2]; 24 h incubation, 2.5 µM): 112.36 ± 1.5% | viability of HL-60 cells relative to control (HL-60 cells [2]; 24 h incubation, 5 µM): 106.89 ± 3.43% | viability of HL-60 cells relative to control (HL-60 cells [2]; 24 h incubation, 10 µM): 89 ± 3.39% | viability of HL-60 cells relative to control (HL-60 cells [2]; 24 h incubation, 25 µM): 46.28 ± 0.82% | viability of HL-60 cells relative to control (HL-60 cells [2]; 24 h incubation, 50 µM): 38.62 ± 0.52% | viability of HL-60 cells relative to control (HL-60 cells [2]; 24 h incubation, 100 µM): 39.69 ± 0.83% | viability of HL-60 cells relative to control (HL-60 cells [2]; 24 h incubation, 250 µM): 17.5 ± 0.5% | viability of A549 cells relative to control (A549 cells; 2 h incubation, 0.5 µM): 100.11 ± 13.46% | viability of A549 cells relative to control (A549 cells; 2 h incubation, 1 µM): 89.02 ± 8.33% | viability of A549 cells relative to control (A549 cells; 2 h incubation, 2.5 µM): 86.36 ± 7.43% | viability of A549 cells relative to control (A549 cells; 2 h incubation, 5 µM): 85.49 ± 7.39% | viability of A549 cells relative to control (A549 cells; 2 h incubation, 10 µM): 83.61 ± 12.73% | viability of A549 cells relative to control (A549 cells; 2 h incubation, 25 µM): 82.29 ± 5.9% | viability of A549 cells relative to control (A549 cells; 2 h incubation, 50 µM): 82.69 ± 3.89% | viability of A549 cells relative to control (A549 cells; 2 h incubation, 100 µM): 74.97 ± 6.81% | viability of A549 cells relative to control (A549 cells; 2 h incubation, 250 µM): 68.50 ± 8.56% | IC50 (A549 cells; 24 h incubation): > 250 µM | cytotoxicity against A549 cells, in words (A549 cells; 24 h incubation): did not show cytotoxicity | viability of A549 cells relative to control (A549 cells; 24 h incubation, 0.5 µM): 80.91 ± 12.58% | viability of A549 cells relative to control (A549 cells; 24 h incubation, 1 µM): 70.97 ± 10.92% | viability of A549 cells relative to control (A549 cells; 24 h incubation, 2.5 µM): 68.70 ± 18.12% | viability of A549 cells relative to control (A549 cells; 24 h incubation, 5 µM): 68.55 ± 13.94% | viability of A549 cells relative to control (A549 cells; 24 h incubation, 10 µM): 71.63 ± 17.67% | viability of A549 cells relative to control (A549 cells; 24 h incubation, 25 µM): 131.92 ± 19.26% | viability of A549 cells relative to control (A549 cells; 24 h incubation, 50 µM): 131.87 ± 25.64% | viability of A549 cells relative to control (A549 cells; 24 h incubation, 100 µM): 153.54 ± 19.26% | viability of A549 cells relative to control (A549 cells; 24 h incubation, 250 µM): 95.62 ± 13.21% | A549 cell viability, increase with increasing concentrations to (A549 cells; 24 h incubation, concentration not given): 153% | viability of PBM cells relative to control (PBM cells; 2 h incubation, 0.5 µM): 83.62 ± 1.79% | viability of PBM cells relative to control (PBM cells; 2 h incubation, 1 µM): 82.59 ± 3.38% | viability of PBM cells relative to control (PBM cells; 2 h incubation, 2.5 µM): 83.52 ± 1.8% | viability of PBM cells relative to control (PBM cells; 2 h incubation, 5 µM): 86.67 ± 4.18% | viability of PBM cells relative to control (PBM cells; 2 h incubation, 10 µM): 89.89 ± 2.91% | viability of PBM cells relative to control (PBM cells; 2 h incubation, 25 µM): 98.19 ± 4.2% | viability of PBM cells relative to control (PBM cells; 2 h incubation, 50 µM): 98.5 ± 3.37% | viability of PBM cells relative to control (PBM cells; 2 h incubation, 100 µM): 97.79 ± 4.89% | viability of PBM cells relative to control (PBM cells; 2 h incubation, 250 µM): 98.17 ± 2.87% | IC50 (PBM cells; 24 h incubation): > 250 µM | viability of PBM cells relative to control (PBM cells; 24 h incubation, 0.5 µM): 102.49 ± 0.39% | viability of PBM cells relative to control (PBM cells; 24 h incubation, 1 µM): 104.14 ± 1.97% | viability of PBM cells relative to control (PBM cells; 24 h incubation, 2.5 µM): 104.31 ± 0.56% | viability of PBM cells relative to control (PBM cells; 24 h incubation, 5 µM): 102.43 ± 1.43% | viability of PBM cells relative to control (PBM cells; 24 h incubation, 10 µM): 99.21 ± 0.78% | viability of PBM cells relative to control (PBM cells; 24 h incubation, 25 µM): 98.34 ± 0.97% | viability of PBM cells relative to control (PBM cells; 24 h incubation, 50 µM): 98.58 ± 2.84% | viability of PBM cells relative to control (PBM cells; 24 h incubation, 100 µM): 102.37 ± 3.3% | viability of PBM cells relative to control (PBM cells; 24 h incubation, 250 µM): 94.72 ± 3.88%
